# Test results taken from US20200339537A1, “NOVEL COMPOUND AS INHIBITOR AGAINST BINDING OF PF34 PROTEIN TO NEDD4-1 PROTEIN AND USE THEREOF” (ENHANCEDBIO INC., priority 2017, published 2020).
# Assays:
# [1] = molecular target: T1, binding between p34 protein and NEDD4-1 protein (Homo sapiens, UniProt P46934+Q9UHV2); test: Inhibitory activity on binding between p34 and NEDD4-1, FRET (HTRF) assay; settings: pH 7.4, compound 10 μM; 1×PBS pH 7.4, 0.1% BSA, 2% DMSO; 384-well
# T1 construct: FLAG or 6xHis (known only from the detection antibodies)
# T1 sequence (P46934 1-1319): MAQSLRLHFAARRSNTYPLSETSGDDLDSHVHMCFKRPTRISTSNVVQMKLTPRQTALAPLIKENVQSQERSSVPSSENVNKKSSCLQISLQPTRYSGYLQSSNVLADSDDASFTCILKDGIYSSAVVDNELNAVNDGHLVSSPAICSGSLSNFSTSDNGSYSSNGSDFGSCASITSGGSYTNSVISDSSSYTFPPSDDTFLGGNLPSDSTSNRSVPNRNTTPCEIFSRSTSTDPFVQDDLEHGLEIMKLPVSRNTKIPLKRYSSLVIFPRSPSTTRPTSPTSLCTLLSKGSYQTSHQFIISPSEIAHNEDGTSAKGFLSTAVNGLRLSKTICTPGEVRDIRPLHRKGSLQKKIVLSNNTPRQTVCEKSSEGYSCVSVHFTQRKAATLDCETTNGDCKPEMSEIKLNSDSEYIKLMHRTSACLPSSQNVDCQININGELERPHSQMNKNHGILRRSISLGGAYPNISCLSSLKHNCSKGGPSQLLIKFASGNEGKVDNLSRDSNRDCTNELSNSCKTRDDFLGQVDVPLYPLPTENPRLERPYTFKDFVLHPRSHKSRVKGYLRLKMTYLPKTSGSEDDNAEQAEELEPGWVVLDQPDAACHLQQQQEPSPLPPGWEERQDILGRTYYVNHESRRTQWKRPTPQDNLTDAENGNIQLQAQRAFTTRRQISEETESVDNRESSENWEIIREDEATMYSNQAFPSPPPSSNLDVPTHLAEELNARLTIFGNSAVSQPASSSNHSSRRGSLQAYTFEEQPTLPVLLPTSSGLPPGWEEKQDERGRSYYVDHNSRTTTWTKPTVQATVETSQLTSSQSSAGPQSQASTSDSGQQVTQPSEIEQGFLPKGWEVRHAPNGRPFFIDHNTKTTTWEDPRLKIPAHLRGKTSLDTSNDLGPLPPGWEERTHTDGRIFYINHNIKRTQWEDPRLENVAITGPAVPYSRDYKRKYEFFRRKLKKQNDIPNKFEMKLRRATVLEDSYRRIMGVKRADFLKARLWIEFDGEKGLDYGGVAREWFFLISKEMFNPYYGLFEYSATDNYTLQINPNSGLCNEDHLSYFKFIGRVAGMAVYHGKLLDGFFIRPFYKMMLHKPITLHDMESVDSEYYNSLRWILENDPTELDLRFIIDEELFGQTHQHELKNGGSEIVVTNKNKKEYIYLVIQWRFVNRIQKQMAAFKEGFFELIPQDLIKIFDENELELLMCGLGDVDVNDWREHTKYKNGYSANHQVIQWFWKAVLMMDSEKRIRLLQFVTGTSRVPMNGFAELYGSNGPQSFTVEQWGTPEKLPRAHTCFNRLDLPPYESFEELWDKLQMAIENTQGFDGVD
# T1 sequence (Q9UHV2 1-236): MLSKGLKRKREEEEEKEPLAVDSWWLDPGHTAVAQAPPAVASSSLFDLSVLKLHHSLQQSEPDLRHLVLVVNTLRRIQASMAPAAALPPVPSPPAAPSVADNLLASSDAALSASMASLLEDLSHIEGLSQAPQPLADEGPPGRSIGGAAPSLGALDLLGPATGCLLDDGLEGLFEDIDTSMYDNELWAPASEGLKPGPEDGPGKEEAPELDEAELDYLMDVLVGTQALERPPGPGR
# Procedure: Inhibitory activity of the compound on binding between p34 and NEDD4-1 was evaluated using p34 protein and NEDD4-1 protein based on the HTRF technology developed by Cisbio. In this assay, a fluorescence resonance energy transfer (FRET) signal was measured in the presence of terbium-labeled anti-FLAG antibody and d2-labeled anti-6XHis antibody. Experiments were performed in 384-well plates under a condition of 1×PBS pH 7.4, 0.1% BSA, and 2% DMSO. A background signal was measured in the absence of the p34-NEDD4-1 proteins, and a non-inhibiting signal was measured with addition of only a solvent (2% DMSO). […] Subsequently, inhibitory activity of the compound on p34-NEDD4-1 was calculated in %.
# [2] = tested on: PTEN (lipid phosphatase activity) in human colon cancer cell line SW620; test: cells; type: cell-based; settings: Homo sapiens, SW-620, 48 h, compound 5 μM, PTEN immunoprecipitation, diC8-PIP3 substrate, Biomol Green, read-out: PTEN activity (relative fold @5 μM)
Structure (SMILES),inhibition at 10 µM [1],fold induction at 5 µM [2]
O=C(NCc1cncs1)C1CCN(Cc2c[nH]c3ccc(C(F)(F)F)cc23)CC1 [Example 31],58.6%,1.5
O=C(NCc1nc2ccccc2o1)C1CCN(Cc2c[nH]c3ccc(C(F)(F)F)cc23)CC1 [Example 32],61.1%,1.8
O=C(NC(Cc1ccccc1)c1nc2ccccc2[nH]1)C1CCN(Cc2c[nH]c3ccc(C(F)(F)F)cc23)CC1 (stereo not drawn) [Example 33],41.2%,2.5
CC(NC(=O)C1CCN(Cc2c[nH]c3ccc(C(F)(F)F)cc23)CC1)c1nc2ccccc2[nH]1 (stereo not drawn) [Example 34],59.6%,1.9
CCC(NC(=O)C1CCN(Cc2c[nH]c3ccc(C(F)(F)F)cc23)CC1)c1nc2ccccc2[nH]1 (stereo not drawn) [Example 35],45.5%,1.5
O=C(NCc1nc2cc(F)ccc2[nH]1)C1CCN(Cc2c[nH]c3ccc(C(F)(F)F)cc23)CC1 [Example 37],39.4%,1.5
O=C(NCc1nc2cc(F)c(F)cc2[nH]1)C1CCN(Cc2c[nH]c3ccc(C(F)(F)F)cc23)CC1 [Example 39],37.7%,1.6
O=C(NCc1nc2ccccc2[nH]1)C1CCN(Cc2c[nH]c3ccc(Cl)cc23)CC1 [Example 45],33.8%,2.8
O=C(NCc1nc2ccccc2[nH]1)C1CCN(Cc2c[nH]c3ccccc23)CC1 [Example 61],52.3%,2.1
O=C(Nc1ccc(C(F)(F)F)cc1)N1CCN(Cc2ccc3[nH]ccc3c2)CC1 [Example 68],49.6%,1.8
Cc1ccc2[nH]c(CNC(=O)N3CCN(Cc4c[nH]c5ccc(Cl)cc45)CC3)nc2c1 [Example 71],33.7%,1.8
O=C(Nc1ccccn1)N1CCN(Cc2ccc3[nH]ccc3c2)CC1 [Example 72],55.5%,1.9
O=C(Nc1ncccn1)N1CCN(Cc2ccc3[nH]ccc3c2)CC1 [Example 73],53.5%,2.1
O=C(Nc1ccccc1)N1CCN(Cc2ccc3[nH]ccc3c2)CC1 [Example 77],35.3%,1.8
O=C(NCc1nccs1)N1CCN(Cc2n[nH]c3ccccc23)CC1 [Example 79],54.4%,2.2
O=C(NCc1nccs1)N1CCN(Cc2ccc3[nH]ccc3c2)CC1 [Example 80],49.7%,2.1
O=C(NCc1nccs1)N1CCN(Cc2c[nH]c3ccc(F)cc23)CC1 [Example 81],50.7%,2.2
O=C(NCc1nccs1)N1CCN(Cc2ccc3cc[nH]c3c2)CC1 [Example 82],47.2%,1.7
O=C(NCc1cncs1)N1CCN(Cc2n[nH]c3ccccc23)CC1 [Example 83],41.3%,1.9
O=C(NCc1cncs1)N1CCN(Cc2ccc3[nH]ccc3c2)CC1 [Example 84],44.1%,2.9
O=C(NCc1cncs1)N1CCN(Cc2c[nH]c3ccc(Cl)cc23)CC1 [Example 85],44%,1.9
O=C(NCc1cncs1)N1CCN(Cc2c[nH]c3ccc(F)cc23)CC1 [Example 86],41.6%,2
O=C(NCc1cncs1)N1CCN(Cc2ccc3cc[nH]c3c2)CC1 [Example 87],48.7%,1.9
Cc1[nH]c2ccc(CN3CCN(C(=O)NCc4cncs4)CC3)cc2c1C [Example 89],31.5%,2
